Measurements as given in DBAASP.
≈ marks a conversion by molar mass, not a printed value.

Experiments:
Test in all cases: ≥ marks a high value that may be exact or a test limit, other limits are often not marked, values filed in µg/mL are converted to µM
Escherichia coli D31 = test system: Escherichia coli D31
[1] = test system: Listeria fleischmannii DSM 24998
Listeria grayi DSM 20601 = test system: Listeria grayi DSM 20601
[2] = test system: Listeria monocytogenes DSM 20600
[3] = test system: Micrococcus luteus DSM 20030
[4] = test system: Bacillus subtilis DSM 347
[5] = test system: Escherichia coli DH5alpha
[6] = test system: Franconibacter helveticus DSM 18396
[7] = test system: Kocuria rhizophila DSM 348
[8] = test system: Bacillus subtilis KCTC 3068
[9] = test system: Escherichia coli DSM 1103
[10] = test system: Escherichia coli KCTC 1682
[11] = test system: Pseudomonas aeruginosa DSM 1117
[12] = test system: Pseudomonas aeruginosa KCTC 1637
[13] = test system: Salmonella typhimurium KCTC 1926
[14] = test system: Staphylococcus aureus DSM 1104
[15] = test system: Staphylococcus aureus KCTC 1621
[16] = test system: Staphylococcus epidermidis DSM 1798
[17] = test system: Staphylococcus epidermidis KCTC 1917
Acinetobacter baumannii = test system: Acinetobacter baumannii
Enterococcus faecalis = test system: Enterococcus faecalis
Pseudomonas aeruginosa 1 = test system: Pseudomonas aeruginosa 1
Pseudomonas aeruginosa = test system: Pseudomonas aeruginosa
Staphylococcus aureus = test system: Staphylococcus aureus
[18] = test system: Candida albicans ATCC 10231
[19] = test system: Cryptococcus neoformans ATCC 32264
Escherichia coli = test system: Escherichia coli
[20] = test system: Pseudomonas aeruginosa ATCC 27853
[21] = test system: Salmonella enterica subsp. enterica serovar Enteritidis
Salmonella sp. = test system: Salmonella sp.
[22] = test system: Staphylococcus aureus ATCC 29213
[23] = test system: Staphylococcus aureus ATCC 33591
[24] = test system: Staphylococcus aureus ATCC 43300
Yersinia enterocolitica = test system: Yersinia enterocolitica
[25] = test system: Escherichia coli ATCC 25922

CC[C@H](C)[C@H](NC(=O)[C@H](C)NC(=O)[C@H](CC(N)=O)NC(=O)[C@H](CCCCN)NC(=O)[C@@H](NC(=O)CNC(=O)[C@H](CCC(=O)O)NC(=O)[C@H](Cc1c[nH]c2ccccc12)NC(=O)[C@H](CC(C)C)NC(=O)[C@H](CCCCN)NC(=O)CNC(=O)[C@H](Cc1c[nH]c2ccccc12)NC(=O)[C@H](Cc1ccccc1)NC(=O)CN)C(C)C)C(=O)N[C@@H](CCCCN)C(=O)N[C@@H](CCCCN)C(=O)N[C@@H](CCCCN)C(N)=O [GFWGKLWEGVKNAIKKK]
MIC (Escherichia coli D31): 4 µM (≈ 7.95 µg/mL) | MIC [1]: 1 µM (≈ 1.99 µg/mL) | MIC (Listeria grayi DSM 20601): 1 µM (≈ 1.99 µg/mL) | MIC [2]: 2 µM (≈ 3.98 µg/mL) | MIC [3]: 0.25 µM (≈ 0.497 µg/mL)

CC[C@H](C)[C@H](NC(=O)[C@H](C)NC(=O)[C@H](CCCCN)NC(=O)[C@H](CCCCN)NC(=O)[C@@H](NC(=O)[C@@H]1CCCN1C(=O)[C@H](CCCCN)NC(=O)[C@H](Cc1c[nH]c2ccccc12)NC(=O)[C@H](CC(C)C)NC(=O)[C@H](CCCCN)NC(=O)CNC(=O)[C@H](Cc1c[nH]c2ccccc12)NC(=O)[C@H](Cc1ccccc1)NC(=O)CN)C(C)C)C(N)=O [GFWGKLWKPVKKAI]
MIC [1]: 15 µM (≈ 24.9 µg/mL) | MIC (Listeria grayi DSM 20601): 8 µM (≈ 13.3 µg/mL) | MIC [2]: 30 µM (≈ 49.7 µg/mL) | MIC [3]: 2 µM (≈ 3.31 µg/mL)

CC[C@H](C)[C@H](NC(=O)CN)C(=O)NCC(=O)N[C@@H](CCCCN)C(=O)N[C@@H](Cc1ccccc1)C(=O)N[C@@H](C)C(=O)N[C@@H](Cc1cnc[nH]1)C(=O)N[C@@H](CO)C(=O)N[C@@H](C)C(=O)N[C@@H](CCCCN)C(=O)N[C@@H](CCCCN)C(=O)N[C@@H](Cc1ccccc1)C(=O)NCC(=O)N[C@@H](CCCCN)C(=O)N[C@@H](C)C(=O)N[C@@H](Cc1ccccc1)C(=O)N[C@H](C(=O)NCC(=O)N[C@@H](CCC(=O)O)C(=O)N[C@H](C(=O)N[C@@H](CCSC)C(=O)N[C@@H](CC(N)=O)C(=O)N[C@@H](CO)C(=O)O)[C@@H](C)CC)C(C)C [GIGKFAHSAKKFGKAFVGEIMNS]
MIC [4]: ≥ 32 µM | MIC [5]: ≥ 128 µM | MIC [6]: ≥ 128 µM | MIC [7]: ≥ 256 µM

CC[C@H](C)[C@H](NC(=O)CN)C(=O)NCC(=O)N[C@@H](CCCCN)C(=O)N[C@@H](Cc1ccccc1)C(=O)N[C@@H](CC(C)C)C(=O)N[C@@H](Cc1cnc[nH]1)C(=O)N[C@@H](CO)C(=O)N[C@@H](C)C(=O)N[C@@H](CCCCN)C(=O)N[C@@H](CCCCN)C(=O)N[C@@H](Cc1ccccc1)C(=O)NCC(=O)N[C@@H](CCCCN)C(=O)N[C@@H](C)C(=O)N[C@@H](Cc1ccccc1)C(=O)N[C@H](C(=O)NCC(=O)N[C@@H](CCC(=O)O)C(=O)N[C@@H](C)C(=O)N[C@@H](CCSC)C(=O)N[C@@H](CC(N)=O)C(=O)N[C@@H](CO)C(=O)O)C(C)C [GIGKFLHSAKKFGKAFVGEAMNS]
MIC [4]: 16 µM (≈ 38.8 µg/mL) | MIC [5]: ≥ 128 µM | MIC [6]: ≥ 64 µM | MIC [7]: ≥ 256 µM

NCCCC[C@H](NC(=O)[C@H](CCCN=C(N)N)NC(=O)CN)C(=O)N[C@@H](CCCCN)C(=O)N[C@@H](CCCN=C(N)N)C(=O)N[C@@H](CCCN=C(N)N)C(=O)N[C@@H](CCC(N)=O)C(=O)N[C@@H](CCCN=C(N)N)C(=O)N[C@@H](CCCN=C(N)N)C(=O)N[C@@H](CCCN=C(N)N)C(=O)N1CCC[C@H]1C(=O)N1CCC[C@H]1C(=O)N[C@@H](CCC(N)=O)C(=O)O [GRKKRRQRRRPPQ]
MIC [8]: 4 µM (≈ 6.88 µg/mL) | MIC [9]: ≥ 128 µM | MIC [10]: 2 µM (≈ 3.44 µg/mL) | MIC [11]: ≥ 128 µM | MIC [12]: 4 µM (≈ 6.88 µg/mL) | MIC [13]: 8 µM (≈ 13.8 µg/mL) | MIC [14]: ≥ 128 µM | MIC [15]: 4 µM (≈ 6.88 µg/mL) | MIC [16]: ≥ 128 µM | MIC [17]: 4 µM (≈ 6.88 µg/mL)

CC(C)C[C@H](NC(=O)[C@H](CC(C)C)NC(=O)[C@H](CCCCN)NC(=O)[C@H](CCCCN)NC(=O)[C@H](CC(C)C)NC(=O)[C@H](CCCCN)NC(=O)[C@H](CCCCN)NC(=O)[C@H](CC(C)C)NC(=O)[C@H](CC(C)C)NC(=O)[C@H](CCCCN)NC(=O)[C@H](CCCN=C(N)N)NC(=O)[C@H](Cc1c[nH]c2ccccc12)NC(=O)[C@H](CCCCN)NC(=O)[C@@H](N)CCCCN)C(N)=O [KKWRKLLKKLKKLL]
MIC (Acinetobacter baumannii): 0.548 µM (≈ 0.999 µg/mL) | MIC (Enterococcus faecalis): 0.658 µM (≈ 1.2 µg/mL) | MIC (Pseudomonas aeruginosa 1): 1.55 µM (≈ 2.83 µg/mL) | MIC (Pseudomonas aeruginosa): 0.548 µM (≈ 0.999 µg/mL) | MIC (Staphylococcus aureus): 1.1 µM (≈ 2 µg/mL)

CC(C)C[C@H](NC(=O)[C@H](C)NC(=O)[C@H](CCCN=C(N)N)NC(=O)[C@H](CC(C)C)NC(=O)[C@H](C)NC(=O)[C@H](CC(C)C)NC(=O)[C@H](CCCN=C(N)N)NC(=O)[C@H](CC(C)C)NC(=O)[C@H](C)NC(=O)[C@H](CC(C)C)NC(=O)[C@@H](N)CCCN=C(N)N)C(=O)N[C@@H](CCCN=C(N)N)C(=O)N[C@@H](C)C(=O)N[C@@H](C)C(=O)N[C@@H](CC(C)C)C(=O)N[C@@H](CCCN=C(N)N)C(=O)N[C@@H](CC(C)C)C(=O)N[C@@H](C)C(N)=O [RLALRLALRALRAALRLA]
MIC [9]: ≥ 57 µM | MIC [11]: ≥ 115 µM | MIC [14]: 29 µM (≈ 58.5 µg/mL) | MIC [16]: 4 µM (≈ 8.07 µg/mL)

CC[C@H](C)[C@H](NC(=O)[C@H](CCCNC(=N)N)NC(=O)[C@@H](NC(=O)[C@H](CCC(N)=O)NC(=O)[C@@H](N)CCCNC(=N)N)[C@@H](C)CC)C(=O)N[C@@H](Cc1c[nH]c2ccccc12)C(=O)N[C@@H](Cc1ccccc1)C(=O)N[C@@H](CCC(N)=O)C(=O)N[C@@H](CC(N)=O)C(=O)N[C@@H](CCCNC(=N)N)C(=O)N[C@@H](CCCNC(=N)N)C(=O)N[C@@H](CCSC)C(=O)N[C@@H](CCCNC(=N)N)C(=O)N[C@@H](Cc1c[nH]c2ccccc12)C(=O)N[C@@H](CCCNC(=N)N)C(=O)N[C@@H](CCCNC(=N)N)C(N)=O [RQIRIWFQNRRMRWRR]
MIC [18]: 100 µM (≈ 236 µg/mL) | MIC [19]: ≥ 50 µM | MIC (Escherichia coli): 25 µM (≈ 58.9 µg/mL) | MIC [20]: > 50 µM | MIC [21]: 25 µM (≈ 58.9 µg/mL) | MIC (Salmonella sp.): ≥ 50 µM | MIC [22]: > 50 µM | MIC [23]: 16 µM (≈ 37.7 µg/mL) | MIC [24]: > 50 µM | MIC (Yersinia enterocolitica): ≥ 50 µM

CC[C@H](C)[C@H](NC(=O)[C@H](CCC(N)=O)NC(=O)[C@@H](N)CCCN=C(N)N)C(=O)N[C@@H](CCCN=C(N)N)C(=O)N[C@@H](CCCN=C(N)N)C(=O)N[C@@H](Cc1c[nH]c2ccccc12)C(=O)N[C@@H](Cc1c[nH]c2ccccc12)C(=O)N[C@@H](CCC(N)=O)C(=O)N[C@@H](CCCN=C(N)N)C(N)=O [RQIRRWWQR]
MIC [18]: 10 µM (≈ 13.8 µg/mL) | MIC [19]: 25 µM (≈ 34.6 µg/mL) | MIC [25]: 18.1 µM (≈ 25 µg/mL) | MIC (Escherichia coli): 9.03 µM (≈ 12.5 µg/mL) | MIC [20]: > 50 µM | MIC [21]: 18.1 µM (≈ 25 µg/mL) | MIC (Salmonella sp.): 18.1 µM (≈ 25 µg/mL) | MIC [22]: 36.1 µM (≈ 50 µg/mL) | MIC [24]: 18.1 µM (≈ 25 µg/mL) | MIC (Yersinia enterocolitica): 18.1 µM (≈ 25 µg/mL)
